Where no end group is shown, it is not given here. [ ]: non-standard residue; d: D form. pS = N[C@@H](COP(=O)(O)O)C(=O)O
Columns and labels:
Type in all cases: cell-based, human
[1] = test system: LDLR levels in Huh7 cells; assay: Peptides added to cultured cells, LDLR immunoblot of total cell lysates; settings: 24 hours, media minus FBS
Description: Cells were seeded onto 6 well plates and grown to ˜80% confluency. All cell lines were grown in DMEM (Dulbecco's Modified Eagle's Medium)+10% (v/v) FBS (fetal bovine serum)+280 μg/ml GTM (gentamycin). In this case, cells were incubated overnight in the same media in the absence of FBS for 12 hours. Peptides are then added to media minus FBS, and at indicated concentrations and this media+peptide is added onto cells cultured for additional 24 hours. Following this incubation we collected the spent media and total cell lysates (TCL) in the presence of protease inhibitor cocktail. 50 μg of proteins from TCL were then fractionated by SDS-PAGE, transferred to nitrocellulose and immunoblotted following standard protocols with a commercial anti LDLR antibody. The protein signals for LDLR were quantified by densitometry using Syngene Chemigenius 2XE imager and Gene Tools software. All values are made relative to values from untreated control cells set as 1 and presented as mean±SEM ([…]).

[2] = test system: LDLR levels in Huh7 cells; assay: Overexpression of PCSK9 phosphorylation mutants, LDLR immunoblot; settings: 72 hours post-transfection, in comparison to wildtype PCSK9
Description: Huh7 cells were untransfected (C-control) or transiently transfected with cDNAs encoding either wild-type (WT) PCSK9, or the naturally-occurring propeptide mutants shown to decrease PCSK9 phosphorylation; A53V PCSK9 and R46L PCSK9 or the engineered propeptide mutants that prevent phosphorylation; S47A PCSK9, E49A PCAK9 and E49D PCSK9 or the engineered C-terminal mutants that prevent phosphorylation; S688A and E690A. 72 hours post-transfection spent media and total cell lysates were collected as described herein. 50 μg of total cell lysates were fractionated through a 7% NuPAGE Tris-Acetate Gel (Invitrogen) and immunoblotted for LDLR as described below. The protein signals were quantified by densitometry using Syngene Chemigenius 2XE imager and Gene Tools software. All values were made relative to values from control cells set as 1 and presented as mean±SEM (n=3). Data were analyzed using GraphPad Prism 5.0 statistical software with significance defined as p<0.05.

[3] = test system: LDLR levels in Huh7 cells; assay: Kinase inhibitor incubation, LDLR immunoblot of total cell lysates; settings: 16 hrs, SSP at 200 nm, GK at 25 μg/ml, relative to untreated cells
Description: The level of LDLR was quantified in Huh7 cells by immunoblotting of total cell lysates (50 μg) in response to overnight incubation without (control) or with two different kinase inhibitors, staurosporine (SSP at 200 nm) or GK (genistein at 25 μg/ml) (FIG. 11A). Huh7 cells were seeded onto 6 well plates and grown to 80% confluency in DMEM (Dulbecco's Modified Eagle's Medium)+10% (v/v) FBS (fetal bovine serum)+280 μg/ml GTM (gentamycin). Cells were then incubated for 16 hrs in the same media in the presence or absence of kinase inhibitor; staurosporine (SSP at 200 nm) or GK (genistein at 25 μg/ml). Cells were lysed in 1XRIPA buffer [50 mM Tris (pH 7.6), 150 mM NaCl, 1% (v/v) NP-40, 0.5% (w/v) DOC, 0.1% (w/v) SDS] in the presence of inhibitors, as above. Lysates were rotated at 4° C. for 30 min, centrifuged at 13,000×g for 3 min and supernatants collected. Protein concentrations in total cell lysates were determined by the Bradford dye-binding method using Bio-Rad's Protein Assay Kit (Bio-Rad; Mississauga, ON, CAN). LDLR levels were analyzed by immunoblotting following a standard protocol. The protein signals were quantified by densitometry using Syngene Chemigenius 2XE imager and Gene Tools software. […]

[4] = test system: PCSK9 phosphorylation in Huh7 cells; assay: Kinase inhibitor incubation, radiolabelling and immunoprecipitation of secreted PCSK9; settings: 32P-orthophosphate, 16 hrs, SSP at 200 nm, GK at 25 μg/ml
Description: Untransfected and transfected HepG2 and Huh7 cells were grown to confluence as above. Prior to radiolabeling cells were incubated for 4 hours in serum-free DMEM without sodium phosphate (Invitrogen) or methionine/cysteine (Met/Cys) free DMEM (Invitrogen) and then incubated for 16 hrs in the same media in the presence of either 250 μCi 32P-orthophosphate or 250 μCi 35S-Met/Cys. Media and TCLs were harvested and immunoprecipitated as described above. Samples were fractionated through a 12% SDSPAGE. Following electrophoresis gels were dried and visualized by phosphoimaging using a Typhoon Imager. Signals were quantified using ImageQuant 5.2 software using the integer integration method when comparing samples within a lane and, for samples between lanes, by volume quantitation as recommended. The level of LDLR was quantified in Huh7 cells by immunoblotting of total cell lysates (50 μg) in response to overnight incubation without (control) or with two different kinase inhibitors, staurosporine (SSP at 200 nm) or GK (genistein at 25 μg/ml) (FIG. 11A). […] Protein concentrations in total cell lysates were determined by the Bradford dye-binding method using Bio-Rad's Protein Assay Kit (Bio-Rad; Mississauga, ON, CAN). LDLR levels were analyzed by immunoblotting following a standard protocol. […]

Compound	effect on LDLR degradation in comparison to control ([1]; peptide 10 μM)	effect on LDLR degradation in comparison to control ([1]; peptide 100 μM)	further results
RSRHLAQASQELQ (homo sapiens) [SEQ ID NO:4, unphosphorylated PCSK9 polypeptide fragment comprising Serine 688]	protect LDLR from degradation		
VLALRS(phos)EEDGLAEAP (VLALR[pS]EEDGLAEAP) [SEQ ID NO:3, phosphorylated PCSK9 polypeptide fragment comprising phosphoSerine 47]	accentuate LDLR degradation	accentuate LDLR degradation	
VLALRSEEDGLAEAP (homo sapiens) [SEQ ID NO:2, unphosphorylated PCSK9 polypeptide fragment comprising Serine 47]	protect LDLR from degradation	protect LDLR from degradation	
RSRHLAQAS(phos)QELQ (RSRHLAQA[pS]QELQ) [SEQ ID NO:5, phosphorylated PCSK9 polypeptide fragment comprising phosphoSerine 688]	protect LDLR from degradation	protect LDLR from degradation	
S47E: engineered propeptide mutant that mimics PCSK9 propeptide phosphorylation			level of LDLR / LDLR degradation [2]: increased LDLR degradation
CN[C@@H]1C[C@H]2O[C@@](C)([C@@H]1OC)n1c3ccccc3c3c4c(c5c6ccccc6n2c5c31)C(=O)NC4 [SSP, staurosporine]			level of LDLR [3]: increased levels of LDLR; phosphorylation of PCSK9 and its prodomain [4]: neither PCSK9 nor its prodomain are phosphorylated
O=c1c(-c2ccc(O)cc2)coc2cc(O)cc(O)c12 [GK, genistein]			level of LDLR [3]: not; phosphorylation of PCSK9 and its prodomain [4]: does not affect PCSK9 phosphorylation

— patent US7928189B2, “PCSK9 polypeptide fragment” (Ottawa Health Research Institute, priority 2008, dated 2011)
